Values of other authors in patent US7009061B2, “Diterpene compounds” (Nihon University, priority 2003, dated 2006).

Test system: P-388 cells

Molecule | depressive activities against P-388 cells in vivo
CCCCCCCCCCCCCCCC(=O)OCC1=C[C@@H]2C(=O)[C@]3(C=C(C)[C@H](OC(=O)C(C)C(C)C)[C@@]3(O)[C@@H]1O)[C@H](C)C[C@]1(OC(=O)CCCCCCCCCCC)[C@H]2C1(C)C (some centres unmarked) [kansuiphorin A] | depressive activities
kanusiphorin B | depressive activities
